{"source": "ChEMBL document CHEMBL4393714", "about": "“Multi-targeting protein-protein interaction inhibitors: Evolution of macrocyclic ligands with embedded carbohydrates (MECs) to improve selectivity” (Eur J Med Chem, 2019)", "key": {"[1]": {"biological_target": "Beta-2 adrenergic receptor (Homo sapiens) (UniProt P07550)", "sequence (P07550 whole entry, looked up)": "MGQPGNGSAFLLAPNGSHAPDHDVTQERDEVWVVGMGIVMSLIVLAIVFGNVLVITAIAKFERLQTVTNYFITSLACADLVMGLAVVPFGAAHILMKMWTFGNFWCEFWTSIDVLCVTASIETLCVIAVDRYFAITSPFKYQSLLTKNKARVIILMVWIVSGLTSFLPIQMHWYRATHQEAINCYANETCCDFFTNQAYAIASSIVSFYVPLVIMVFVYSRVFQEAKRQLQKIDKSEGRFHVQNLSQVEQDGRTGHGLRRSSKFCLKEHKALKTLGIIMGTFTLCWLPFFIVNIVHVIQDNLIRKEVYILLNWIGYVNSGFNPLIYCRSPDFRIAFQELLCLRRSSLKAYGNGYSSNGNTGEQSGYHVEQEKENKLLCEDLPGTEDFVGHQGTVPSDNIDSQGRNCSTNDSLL", "experiment": "Agonist activity at human beta 2 adreno receptor at 10 uM relative to control"}, "[2]": {"biological_target": "Melanocortin receptor 4 (Homo sapiens) (UniProt P32245)", "experiment": "Displacement of [125I]NDP-alpha-MSH from human recombinant MC 4 receptor at 10 uM measured after 120 mins by scintillation counter method relative to control"}, "[3]": {"biological_target": "Vasopressin V1a receptor (Homo sapiens) (UniProt P37288)", "experiment": "Displacement of [3H] AVP from human recombinant vasopressin V1A receptor at 10 uM measured after 60 mins by scintillation counter method relative to control"}, "[4]": {"biological_target": "Kappa-type opioid receptor (Homo sapiens) (UniProt P41145)", "experiment": "Displacement of [3H] U69593 from human kappa opioid receptor at 10 uM measured after 60 mins by scintillation counter method relative to control"}, "[5]": {"biological_target": "Small conductance calcium-activated potassium channel (Rattus norvegicus) (UniProt P70604+P70606+P70605)", "experiment": "Displacement of [125I]apamin from rat brain SKCa at 10 uM measured after 60 mins by scintillation counter method relative to control"}, "[6]": {"biological_target": "Adenosine receptor A3 (Homo sapiens) (UniProt P0DMS8)", "sequence (P0DMS8 whole entry)": "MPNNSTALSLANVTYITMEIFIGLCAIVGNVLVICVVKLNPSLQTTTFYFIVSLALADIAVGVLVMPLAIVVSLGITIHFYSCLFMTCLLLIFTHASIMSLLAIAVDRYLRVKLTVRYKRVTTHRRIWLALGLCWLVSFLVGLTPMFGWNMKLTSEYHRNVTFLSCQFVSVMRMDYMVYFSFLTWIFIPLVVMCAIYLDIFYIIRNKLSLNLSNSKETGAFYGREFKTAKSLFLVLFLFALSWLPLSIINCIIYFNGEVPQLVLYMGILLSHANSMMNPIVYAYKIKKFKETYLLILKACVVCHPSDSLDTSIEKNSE", "experiment": "Displacement of [125I] AB-MECA from human recombinant A3 receptor at 10 uM measured after 120 mins by scintillation counter method relative to control"}, "[7]": {"biological_target": "Somatostatin receptor type 1 (Homo sapiens) (UniProt P30872)", "experiment": "Displacement of [125I] tyr11-somatostatin-14 from human recombinant somatostatin receptor type1 at 10 uM measured after 180 mins by scintillation counter method relative to control"}, "[8]": {"biological_target": "Histamine H1 receptor (Homo sapiens) (UniProt P35367)", "experiment": "Displacement of [3H]pyrilamine from human recombinant H1 receptor at 10 uM measured after 60 mins by scintillation counter method relative to control"}, "[9]": {"biological_target": "GABA-A receptor; anion channel (Rattus norvegicus) (UniProt O09028+P15431+P18506+P18508+P19969+P20236+P23574+P23576+P28471+P28473+P30191+P62813+P63079+P63138+Q91ZM7+Q9ES14)", "experiment": "Displacement of [3H]flunitrazepam from rat GABAA ion channel at 10 uM measured after 120 mins by scintillation counter method relative to control", "assay_type": "protein-complex assay"}, "Rattus norvegicus": {"species": "Rattus norvegicus", "experiment": "Displacement of [125I]alpha dendrotoxin from rat potassium channel at 10 uM measured after 60 mins by scintillation counter method relative to control"}, "[10]": {"biological_target": "Sodium-dependent noradrenaline transporter (Homo sapiens) (UniProt P23975)", "experiment": "Displacement of [3H] nisoxetine from human recombinant norepinephrine transporter at 10 uM measured after 120 mins by scintillation counter method relative to control"}, "[11]": {"biological_target": "Neuropeptide Y receptor type 2 (Homo sapiens) (UniProt P49146)", "sequence (P49146 whole entry)": "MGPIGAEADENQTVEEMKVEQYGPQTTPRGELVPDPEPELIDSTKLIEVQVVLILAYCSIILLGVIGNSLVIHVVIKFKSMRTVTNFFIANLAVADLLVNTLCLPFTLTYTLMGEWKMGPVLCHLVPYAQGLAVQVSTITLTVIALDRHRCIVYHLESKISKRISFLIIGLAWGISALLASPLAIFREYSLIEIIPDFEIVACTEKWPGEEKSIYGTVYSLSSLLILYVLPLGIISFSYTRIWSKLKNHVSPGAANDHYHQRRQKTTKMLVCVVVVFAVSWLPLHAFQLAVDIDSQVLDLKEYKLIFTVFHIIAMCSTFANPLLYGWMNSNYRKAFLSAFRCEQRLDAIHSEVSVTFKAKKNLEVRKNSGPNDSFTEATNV", "experiment": "Displacement of [125I] peptide YY from human neuropeptide Y2 receptor at 10 uM measured after 60 mins by scintillation counter method relative to control"}, "[12]": {"biological_target": "5-hydroxytryptamine receptor 2B (Homo sapiens, UniProt P41595)", "sequence (P41595 whole entry)": "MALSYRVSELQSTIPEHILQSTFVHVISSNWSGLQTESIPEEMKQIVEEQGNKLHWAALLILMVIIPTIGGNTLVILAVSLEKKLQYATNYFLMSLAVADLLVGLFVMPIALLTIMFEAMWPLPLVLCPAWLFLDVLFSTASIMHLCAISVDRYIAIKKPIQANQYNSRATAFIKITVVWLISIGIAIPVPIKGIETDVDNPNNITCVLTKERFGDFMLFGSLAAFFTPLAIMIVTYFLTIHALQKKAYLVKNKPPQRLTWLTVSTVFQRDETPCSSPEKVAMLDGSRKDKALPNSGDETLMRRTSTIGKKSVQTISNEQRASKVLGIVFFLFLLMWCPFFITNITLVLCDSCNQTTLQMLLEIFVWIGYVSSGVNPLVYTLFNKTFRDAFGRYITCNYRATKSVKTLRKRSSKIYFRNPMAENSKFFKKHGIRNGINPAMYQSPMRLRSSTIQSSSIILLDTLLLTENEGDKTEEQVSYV", "experiment": "Antagonist activity at human recombinant 5-HT2B receptor in CHOK1 cells measured after 30 mins by HTRF assay", "assay_type": "cell-based"}, "[13]": {"biological_target": "5-hydroxytryptamine receptor 3A (Homo sapiens) (UniProt P46098)", "sequence (P46098 whole entry)": "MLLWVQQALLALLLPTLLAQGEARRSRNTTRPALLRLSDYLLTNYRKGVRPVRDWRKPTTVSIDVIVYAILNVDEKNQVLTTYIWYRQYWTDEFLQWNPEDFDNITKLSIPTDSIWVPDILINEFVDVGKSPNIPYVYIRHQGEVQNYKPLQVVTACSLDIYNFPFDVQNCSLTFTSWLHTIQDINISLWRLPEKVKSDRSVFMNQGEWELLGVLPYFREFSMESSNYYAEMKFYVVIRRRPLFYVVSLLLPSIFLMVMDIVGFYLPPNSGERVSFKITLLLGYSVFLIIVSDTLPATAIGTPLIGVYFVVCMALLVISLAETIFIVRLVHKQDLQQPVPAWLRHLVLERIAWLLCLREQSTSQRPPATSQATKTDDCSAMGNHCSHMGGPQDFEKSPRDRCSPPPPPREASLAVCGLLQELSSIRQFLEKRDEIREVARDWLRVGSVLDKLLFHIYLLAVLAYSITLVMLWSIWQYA", "experiment": "Displacement of [3H] BRL 43694 from human 5-HT3 at 10 uM measured after 120 mins by scintillation counter method relative to control"}, "[14]": {"biological_target": "Endothelin-1 receptor (Homo sapiens) (UniProt P25101)", "sequence (P25101 whole entry)": "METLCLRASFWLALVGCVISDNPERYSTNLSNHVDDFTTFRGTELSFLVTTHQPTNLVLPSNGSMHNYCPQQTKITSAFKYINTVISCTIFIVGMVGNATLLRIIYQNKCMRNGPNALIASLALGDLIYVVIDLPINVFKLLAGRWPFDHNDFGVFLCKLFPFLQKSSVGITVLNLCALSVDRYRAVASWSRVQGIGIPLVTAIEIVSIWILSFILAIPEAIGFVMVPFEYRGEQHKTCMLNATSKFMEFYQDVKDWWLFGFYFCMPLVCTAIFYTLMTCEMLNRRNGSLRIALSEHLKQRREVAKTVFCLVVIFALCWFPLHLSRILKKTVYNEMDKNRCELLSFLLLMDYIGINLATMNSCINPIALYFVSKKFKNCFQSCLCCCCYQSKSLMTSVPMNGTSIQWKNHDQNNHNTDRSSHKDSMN", "experiment": "Displacement of [125I]endothelin-1 from human recombinant ETA receptor at 10 uM measured after 120 mins by scintillation counter method relative to control"}, "[15]": {"biological_target": "B2 bradykinin receptor (Homo sapiens) (UniProt P30411)", "sequence (P30411 whole entry)": "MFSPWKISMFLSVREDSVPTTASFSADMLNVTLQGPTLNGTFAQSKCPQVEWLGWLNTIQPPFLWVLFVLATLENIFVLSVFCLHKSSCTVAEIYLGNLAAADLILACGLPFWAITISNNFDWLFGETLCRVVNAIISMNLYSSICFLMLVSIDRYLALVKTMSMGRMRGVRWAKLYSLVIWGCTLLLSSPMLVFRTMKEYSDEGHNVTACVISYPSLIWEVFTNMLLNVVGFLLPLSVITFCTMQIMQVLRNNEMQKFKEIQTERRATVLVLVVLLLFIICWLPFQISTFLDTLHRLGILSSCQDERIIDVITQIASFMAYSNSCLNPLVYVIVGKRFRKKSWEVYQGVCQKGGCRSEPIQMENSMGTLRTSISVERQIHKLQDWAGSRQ", "experiment": "Displacement of [3H]bradykinin from human recombinant B2 receptor at 10 uM measured after 60 mins by scintillation counter method relative to control"}, "[16]": {"biological_target": "Cholecystokinin receptor type A (Homo sapiens) (UniProt P32238)", "sequence (P32238 whole entry)": "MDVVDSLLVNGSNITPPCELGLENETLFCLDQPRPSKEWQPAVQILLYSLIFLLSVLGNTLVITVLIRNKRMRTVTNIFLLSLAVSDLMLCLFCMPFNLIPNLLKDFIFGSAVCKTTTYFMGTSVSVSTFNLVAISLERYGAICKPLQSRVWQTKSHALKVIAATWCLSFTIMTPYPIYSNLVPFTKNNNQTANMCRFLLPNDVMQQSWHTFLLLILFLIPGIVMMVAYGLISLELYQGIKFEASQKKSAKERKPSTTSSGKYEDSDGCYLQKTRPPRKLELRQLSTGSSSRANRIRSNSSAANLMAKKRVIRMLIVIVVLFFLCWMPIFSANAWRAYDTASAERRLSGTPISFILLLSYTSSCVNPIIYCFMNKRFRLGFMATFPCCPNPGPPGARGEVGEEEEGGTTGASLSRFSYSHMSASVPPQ", "experiment": "Displacement of [125I]CCK-8s from human recombinant CCK1 receptor at 10 uM measured after 60 mins by scintillation counter method relative to control"}, "[17]": {"biological_target": "Substance-K receptor (Homo sapiens) (UniProt P21452)", "experiment": "Displacement of [125I]NKA from human recombinant NK2 receptor at 10 uM measured after 60 mins by scintillation counter method relative to control"}, "[18]": {"biological_target": "C-X-C chemokine receptor type 2 (Homo sapiens) (UniProt P25025)", "experiment": "Displacement of [125I]IL-8 from human recombinant CXCR2 receptor at 10 uM measured after 60 mins by scintillation counter method relative to control"}, "[19]": {"biological_target": "T1, 5-hydroxytryptamine receptor 1A (Homo sapiens, UniProt P08908)", "T1 sequence (P08908 whole entry)": "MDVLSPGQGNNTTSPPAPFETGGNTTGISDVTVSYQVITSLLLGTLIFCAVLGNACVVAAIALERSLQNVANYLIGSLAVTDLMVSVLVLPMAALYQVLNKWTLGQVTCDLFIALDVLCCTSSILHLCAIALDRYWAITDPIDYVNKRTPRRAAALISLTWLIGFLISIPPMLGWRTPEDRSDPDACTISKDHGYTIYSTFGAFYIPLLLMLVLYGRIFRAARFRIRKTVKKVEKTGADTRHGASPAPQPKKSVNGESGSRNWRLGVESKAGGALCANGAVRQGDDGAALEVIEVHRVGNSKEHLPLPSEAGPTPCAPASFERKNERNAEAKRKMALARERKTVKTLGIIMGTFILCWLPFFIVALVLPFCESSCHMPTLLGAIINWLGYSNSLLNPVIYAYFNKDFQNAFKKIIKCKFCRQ", "experiment": "Displacement of [3H]OH-DPAT from human recombinant 5-HT1A receptor measured after 60 mins by scintillation counter method"}, "[20]": {"biological_target": "D(1A) dopamine receptor (Homo sapiens) (UniProt P21728)", "sequence (P21728 whole entry)": "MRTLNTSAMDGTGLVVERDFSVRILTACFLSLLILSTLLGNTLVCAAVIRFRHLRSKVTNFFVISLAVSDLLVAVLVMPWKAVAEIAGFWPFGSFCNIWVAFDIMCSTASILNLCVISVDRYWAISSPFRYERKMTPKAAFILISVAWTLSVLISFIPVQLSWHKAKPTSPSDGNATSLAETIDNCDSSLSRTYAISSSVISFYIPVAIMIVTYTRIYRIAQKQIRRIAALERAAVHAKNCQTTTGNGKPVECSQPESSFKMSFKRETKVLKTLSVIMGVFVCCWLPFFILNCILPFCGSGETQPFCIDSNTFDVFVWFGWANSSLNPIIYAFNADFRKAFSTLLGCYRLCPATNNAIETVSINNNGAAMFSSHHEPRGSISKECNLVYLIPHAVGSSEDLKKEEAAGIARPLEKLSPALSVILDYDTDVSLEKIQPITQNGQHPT", "experiment": "Displacement of [3H]SCH23390 from human recombinant D1 receptor at 10 uM measured after 60 mins by scintillation counter method relative to control"}, "[21]": {"biological_target": "Sodium-dependent serotonin transporter (Homo sapiens, UniProt P31645)", "sequence (P31645 whole entry, looked up)": "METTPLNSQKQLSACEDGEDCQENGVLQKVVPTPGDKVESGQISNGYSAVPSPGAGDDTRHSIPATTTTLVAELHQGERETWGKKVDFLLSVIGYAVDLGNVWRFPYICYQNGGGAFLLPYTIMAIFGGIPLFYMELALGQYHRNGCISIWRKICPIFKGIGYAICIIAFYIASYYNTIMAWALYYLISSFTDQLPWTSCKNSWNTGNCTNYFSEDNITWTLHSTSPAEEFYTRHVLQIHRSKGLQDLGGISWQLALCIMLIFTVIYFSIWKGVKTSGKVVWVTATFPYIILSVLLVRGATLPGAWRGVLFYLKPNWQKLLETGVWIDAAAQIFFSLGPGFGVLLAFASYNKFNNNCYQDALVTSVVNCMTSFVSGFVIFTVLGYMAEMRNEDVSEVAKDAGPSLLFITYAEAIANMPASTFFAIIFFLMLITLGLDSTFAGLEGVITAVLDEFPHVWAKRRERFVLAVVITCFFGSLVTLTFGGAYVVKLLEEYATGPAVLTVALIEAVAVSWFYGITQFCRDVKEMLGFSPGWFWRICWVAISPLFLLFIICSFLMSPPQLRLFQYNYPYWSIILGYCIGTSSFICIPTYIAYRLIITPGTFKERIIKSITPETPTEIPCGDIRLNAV", "experiment": "Displacement of [3H] imipramine from human recombinant 5-HT transporter at 10 uM measured after 60 mins by scintillation counter method relative to control"}, "[22]": {"biological_target": "Neurotensin receptor type 1 (Homo sapiens) (UniProt P30989)", "sequence (P30989 whole entry)": "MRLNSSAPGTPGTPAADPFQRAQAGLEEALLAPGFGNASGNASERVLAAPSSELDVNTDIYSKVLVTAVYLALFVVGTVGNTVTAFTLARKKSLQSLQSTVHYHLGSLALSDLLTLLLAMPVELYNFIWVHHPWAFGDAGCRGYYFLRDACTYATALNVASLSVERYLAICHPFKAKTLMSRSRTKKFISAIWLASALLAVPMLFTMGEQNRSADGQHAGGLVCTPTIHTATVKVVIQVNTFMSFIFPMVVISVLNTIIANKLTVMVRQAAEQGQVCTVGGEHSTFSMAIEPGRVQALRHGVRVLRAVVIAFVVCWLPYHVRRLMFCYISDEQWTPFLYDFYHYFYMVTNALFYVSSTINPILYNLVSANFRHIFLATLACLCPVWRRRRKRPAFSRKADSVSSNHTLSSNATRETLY", "experiment": "Displacement of [125I]Tyr3-neurotensin from human recombinant neurotensin receptor type1 at 10 uM measured after 60 mins by scintillation counter method relative to control"}, "[23]": {"biological_target": "5-hydroxytryptamine receptor 1B (Homo sapiens) (UniProt P28222)", "experiment": "Displacement of [3H] GR125743 from human recombinant 5-HT1B receptor at 10 uM measured after 60 mins by scintillation counter method relative to control"}, "[24]": {"biological_target": "Cannabinoid receptor 1 (Homo sapiens) (UniProt P21554)", "experiment": "Displacement of [3H]CP 55940 from human recombinant CB1 receptor at 10 uM measured after 120 mins by scintillation counter method relative to control"}, "[25]": {"biological_target": "Histamine H2 receptor (Homo sapiens) (UniProt P25021)", "experiment": "Displacement of [125I]APT from human recombinant H2 receptor at 10 uM measured after 120 mins by scintillation counter method relative to control"}}}
{"smiles": "CC(C)CCO[C@@H]1[C@H]2OC(C)(C)O[C@H]2[C@H]2Cn3cc(nn3)COCCCCCCN(CCc3ccc4ccccc4c3)CC[C@H]1O2", "values": [{"measurement": "inhibition", "setting": "[1]", "result": 3.9, "unit": "%"}, {"measurement": "inhibition", "setting": "[2]", "result": 34, "unit": "%"}, {"measurement": "inhibition", "setting": "[3]", "result": 19, "unit": "%"}, {"measurement": "inhibition", "setting": "[4]", "result": 77.9, "unit": "%"}, {"measurement": "inhibition", "setting": "[5]", "result": 1.4, "unit": "%"}, {"measurement": "inhibition", "setting": "[6]", "result": 87.1, "unit": "%"}, {"measurement": "inhibition", "setting": "[7]", "result": 14, "unit": "%"}, {"measurement": "inhibition", "setting": "[8]", "result": 60.5, "unit": "%"}, {"measurement": "Activity", "setting": "[9]", "result": 5.1, "unit": "%"}, {"measurement": "inhibition", "setting": "Rattus norvegicus", "result": 13.4, "unit": "%"}, {"measurement": "inhibition", "setting": "[10]", "result": 55.7, "unit": "%"}, {"measurement": "inhibition", "setting": "[11]", "result": 10.8, "unit": "%"}, {"measurement": "IC50", "setting": "[12]", "result": 1.6, "unit": "µM"}, {"measurement": "Ki", "setting": "[12]", "result": 0.87, "unit": "µM"}, {"measurement": "inhibition", "setting": "[13]", "result": 25.2, "unit": "%"}, {"measurement": "Activity", "setting": "[14]", "result": 7.1, "unit": "%"}, {"measurement": "Activity", "setting": "[15]", "result": 9.4, "unit": "%"}, {"measurement": "inhibition", "setting": "[16]", "result": 61.4, "unit": "%"}, {"measurement": "inhibition", "setting": "[17]", "result": 98.2, "unit": "%"}, {"measurement": "inhibition", "setting": "[18]", "result": 20.9, "unit": "%"}, {"measurement": "IC50", "setting": "[19]", "result": 0.49, "unit": "µM"}, {"measurement": "Ki", "setting": "[19]", "result": 0.31, "unit": "µM"}, {"measurement": "inhibition", "setting": "[20]", "result": 21.5, "unit": "%"}, {"measurement": "inhibition", "setting": "[21]", "result": 68.3, "unit": "%"}, {"measurement": "Activity", "setting": "[22]", "result": 15.7, "unit": "%"}, {"measurement": "inhibition", "setting": "[23]", "result": 19, "unit": "%"}, {"measurement": "inhibition", "setting": "[24]", "result": 33.8, "unit": "%"}, {"measurement": "inhibition", "setting": "[25]", "result": 27.4, "unit": "%"}]}
